Results taken from patent US6900216B2, “Dihydroimidazo[2,1-b]thiazole and dihydro-5h-thiazolo[3,2-A]pyrimidines as antidepressant agents” (Knoll GmbH, priority 2000, dated 2005).

Legend:
[1] = molecular target: T1, 5-HT reuptake sites (Rattus norvegicus, UniProt P31652); assay: 5-HT uptake: displacement of [3H]citalopram from 5-HT reuptake sites, rat frontal cortical membranes; format: binding
T1 construct: Frontal cortical tissue from the brains of male Charles River rats; from tissue; host or cells: rat frontal cortical membranes
Protocol: Frontal cortical tissue from the brains of male Charles River rats weighing 150-250 g was homogenised in ice-cold 50 mM Tris-HCl, pH 7.4 (when measured at 25° C.) containing 120 mM sodium chloride and 5 mM potassium chloride (Tris buffer; 1:30 w/v) and centrifuged at 40,000 g for 10 minutes. The supernatant was discarded and the pellet rehomogenised in Tris buffer, 1:60 w/v, and centrifuged at 40,000 g for 10 minutes. This step was repeated a further time. The final pellet was resuspended in 50 mM Tris-HCl, pH 7.4 containing 120 mM sodium chloride and 5 mM potassium chloride (equivalent to 3.125 mg wet weight of tissue/ml) and used immediately in the binding assay. All centrifugations were performed at 4° C.
Membranes (400 μl; equivalent to 1.25 mg wet weight of tissue/tube) were incubated with 50 μl [^3H]citalopram at a single concentration of 1.3 nM and 50 μl of distilled water (total binding) or 50 μl of test compound (at a single concentration of 10^−6 M or at 10 concentrations ranging from 10^−11-10^−3 M) or 50 μl of paroxetine (0.5 μM; non-specific binding) for 1 h at 27° C. Membrane bound radioactivity was recovered by filtration under vacuum through Skatron 11734 filters presoaked in 0.5% PEI using a Skatron Cell Harvester. Filters were then washed in ice-cold 50 mM Tris-HCl buffer, pH 7.4 (at 25° C., wash setting 9,9,0). The scored filter paper discs were punched out into vials, scintillation fluid added and radioactivity determined by liquid scintillation counting.
(§1) For each of these tests measuring the ability of compounds of Formula I to displace standard ligands from 5-HT1A receptors and 5-hydroxytryptamine (5-HT) and noradrenaline (NA) reuptake sites and muscarinic receptors in vitro, the percentage displacement of specific binding of tritiated ligand by 10^−6 M test compound was calculated in the following way.
(§2) Firstly, specific binding of tritiated ligand in the absence (A) and presence (B) of test compound was determined:
(§3) In the absence of compound: A(dpm)=Total binding (dpm)−Non-specific binding (dpm) In the presence of compound (10^−6 M): B(dpm)=Binding at 10^−6M (dpm)−Non-specific binding (dpm)
(§4) The specific binding of tritiated ligand in the presence (B) of compound was then converted to a percentage of specific binding of tritiated ligand in the absence (A) of compound: % Specific binding at 10^−6 M=B(dpm)/A(dpm)×100
(§5) The percentage displacement of specific binding of tritiated ligand by the test compound (10^−6 M) was then obtained by subtraction of the percentage specific binding in the presence of compound from the percentage specific binding in the absence of compound, which is taken as the maximum binding and so equals 100%:
(§6) % Displacement at 10^−6 M=100−% Specific binding at 10^−6 M.
(§7) In some cases, displacement curves were then produced for compounds which displaced ≧50% of specific binding of the tritiated ligand at 10^−6 M using a range of concentrations of the compound. The Ki was then calculated by simultaneous fitting using equations derived from the Feldman equations by robust non-linear regression to data from three experiments simultaneously (De Lean et al., 1978; Munson and Rodbard, 1980; Feldman, 1992). Munson P J and Rodbard D. Ligand: a versatile computerised approach for characterisation of ligand binding systems. Anal Biochem 1980; 107: 220. Feldman HA. Mathematical theory of complex ligand binding systems at equilibrium: some methods for parameter fitting. Anal Biochem 1992: 48, 317. De Lean A, Munson P J and Rodbard D. Simultaneous analysis of families of sigmoidal curves: application to bioassay, radioligand assay, and physiological dose-response curves. Am J Physiol 1978: 235 (2), E97-E102.
The results obtained in the above tests for 5-HT1A binding and 5-HT and NA uptake and muscarinic binding for the final products of Examples 1-39 hereinafter are given in Table 1 below. Kis are in nM. % Figures are for % displacement at 10^−6 M for a single determination.

[2] = tested on: muscarinic receptors; assay: Muscarinic binding: displacement of [3H]N-methylscopolamine, rat frontal cortical membranes; settings: 10^−6 M test compound, single determination, [3H]N-methylscopolamine
Protocol: Frontal cortical tissue from the brains of male Charles River rats weighing 150-250 g was homogenised in ice-cold 20 mM HEPES buffer, pH 7.5 (measured at 25° C.) containing 100 mM sodium chloride and 10 mM magnesium chloride (1:10 w/v) using a Polytron PT3100 (speed setting 21,700 rpm, 3×5 seconds) and centrifuged at 49,500 g for 30 minutes at 4° C. The supernatant was discarded and the pellet rehomogenised in 20 mM HEPES buffer, pH 7.5 containing 100 mM sodium chloride and 10 mM magnesium chloride (equivalent to 12.5 mg wet weight of tissue/ml). Membranes were stored at −80° C. until required.
Membranes were thawed, diluted 1:10 in ice-cold 20 mM HEPES buffer, pH 7.5 containing 100 mM sodium chloride and 10 mM magnesium chloride and homogenised using a Polytron PT3100 as above. Diluted membranes (200 μl; equivalent to 0.25 mg wet weight of tissue/tube) were incubated with 200 μl of 20 mM HEPES buffer, pH 7.5 containing 100 mM sodium chloride and 10 mM magnesium chloride and 50 μl [^3H]N-methylscopolamine at a single concentration of 0.15 nM and 50 μl distilled water (total binding) or 50 μl test compound (at a single concentration of 10^−6 M or at 10 concentrations ranging from 10^−11-10^−3 M) or 50 μl atropine sulphate (1 μM; non-specific binding) for 30 min at 30° C. Membrane bound radioactivity was recovered by filtration under vacuum through Skatron 11734 filters using a Skatron cell harvester. Filters were rapidly washed with ice-cold 20 mM HEPES buffer, pH 7.5 (wash 1,2 at setting 5,5). The scored filter paper discs were punched out into vials, scintillation fluid added and radioactivity determined by liquid scintillation counting.
as §1, §2, §3, §4, §5, §6
as §7, with “E97-E102. […]” for “E97-E102.”

T1 sequence (P31652 whole entry): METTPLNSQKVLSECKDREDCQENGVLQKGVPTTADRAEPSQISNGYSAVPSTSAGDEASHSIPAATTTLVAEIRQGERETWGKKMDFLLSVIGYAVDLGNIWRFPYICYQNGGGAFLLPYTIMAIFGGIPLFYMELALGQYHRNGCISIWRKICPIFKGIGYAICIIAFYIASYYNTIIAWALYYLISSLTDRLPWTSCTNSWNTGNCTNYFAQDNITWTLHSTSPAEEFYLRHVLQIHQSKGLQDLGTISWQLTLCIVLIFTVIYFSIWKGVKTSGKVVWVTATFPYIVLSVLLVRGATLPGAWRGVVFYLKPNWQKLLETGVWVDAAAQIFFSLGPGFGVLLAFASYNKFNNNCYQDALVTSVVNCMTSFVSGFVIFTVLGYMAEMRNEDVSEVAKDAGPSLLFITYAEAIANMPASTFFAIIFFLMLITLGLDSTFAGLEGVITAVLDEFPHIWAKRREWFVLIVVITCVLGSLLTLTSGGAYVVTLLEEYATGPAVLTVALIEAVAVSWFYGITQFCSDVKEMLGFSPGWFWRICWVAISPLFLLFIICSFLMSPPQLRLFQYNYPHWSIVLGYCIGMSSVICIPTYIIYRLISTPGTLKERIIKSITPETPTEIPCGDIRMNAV

| SMILES | melting point [°C] | inhibition at 1 µM ([1]; 10^−6 M test compound, single determination, [3H]citalopram) [%] | Muscarinic % displacement at 10^−6 M [2] [%] | Ki ([1]; [3H]citalopram 1.3 nM, rat frontal cortical membranes, fit to data from three experiments) [µM] |
| --- | --- | --- | --- | --- |
| OCC1=C(c2cc3ccccc3s2)N2CCN=C2S1 [Example 15, [3-(benzo[b]thiophen-2-yl)-5,6-dihydroimidazo[2,1-b]thiazol-2-yl]methanol] | 138 to 140 | 75 | −15 | – |
| Br.CC1=C(c2ccc3ccsc3c2)N2CCN=C2S1 [Example 37, 3-(benzo[b]thiophen-6-yl)-2-methyl-5,6-dihydroimidazo[2,1-b]thiazole hydrobromide] | 252 to 254 | – | 9 | 0.213 |
